Entries after “also recorded” stand apart in the source; their conditions may differ.
Assays:
[1] = tested on: experimental autoimmune encephalomyelitis in Lewis rats; experiment: EAE treatment in Lewis rats immunized with MBPp85–99; assay type: in vivo; conditions: EAE induced with MBPp85–99, single intraperitoneal dose of 0.5 mg peptide in PBS at disease onset
Protocol: FIG. 1 is a graph depicting the prevention of EAE in rats treated with ordered peptides. […] Animals were injected with an emulsion of 0.1 mg of MBPp85–99 in complete Freund's adjuvant for EAE induction. Ten days later, when the clinical manifestations of disease became apparent, a single intra-peritoneal dose of peptide {SEQ ID NO:4} EYYKEYYKEYYK (squares), {SEQ ID NO:5} KYYKYYKYYKYY (triangles), or PBS (circles)was administered. Results are expressed as mean disease score of groups of six animals.
Animals. Female Lewis rats (6–8 weeks old), were purchased from Harlan Sprague Dawley (Indianapolis, Ind.)
Peptides. For immunization and disease reversal, peptides were synthesized on a peptide synthesizer (model 9050: MilliGen, Burlington, Mass.) by standard 9-fluorenylmethoxycarbonyl chemistry. Peptides were purified by HPLC. Structure was confirmed by amino acid analysis and mass spectroscopy. Peptides used for the experiments were: {SEQ ID NO:11} ENPVVHFFKNIVTPR (MBPp85–99), {SEQ ID NO:4} EYYKEYYKEYYK, {SEQ ID NO:5} KYYKYYKYYKYY.
EAE Induction. […] Experimental animals were scored as follows: 0, no clinical disease; 1, tail weakness or paralysis; 2, hind limb weakness; 3, hind limb paralysis; 4, forelimb weakness or paralysis; 5, moribund or dead animal.
EAE Treatment. Rats previously immunized with MBPp85–99 for EAE induction were scored from day eight after peptide injection. […]

anti-MBP antibodies = experiment: Inhibition of autoantibody binding to MBP (anti-MBP antibodies affinity-purified from CNS lesions); conditions: anti-MBP antibodies from CNS lesions of 12 post-mortem cases
Excerpt: Previously, we have compared the structural requirements for autoantibody recognition to those of T cell clones reactive to MBP p87–99. Anti-MBP antibodies were affinity-purified from CNS lesions of 12 post-mortem cases studied. The MBP p87–99 peptide was immunodominant in all cases and it inhibited autoantibody binding to MBP by more than 95%. Residues contributing to autoantibody binding were located in a 10-amino acid segment p86–95 ({SEQ ID NO:9} VVHFFKNIVT) that also contained the MHC-T cell receptor contact residues for T cells recognizing MBP in the context of DRB1*1501 and DQB1*0602. In the epitope center, the same residues, {SEQ ID NO:10} VHFFK, were important for T cell binding and MHC recognition. Recently, the crystal structure of HLA-DR2 with MBPp85–99 was solved, confirming the prediction that K91 is the major TCR contact residue, while F90 is a major anchor into the hydrophobic P4 pocket of the MHC molecule.

Substance | effect on EAE (mean disease score) [1] | inhibition of autoantibody binding to MBP (anti-MBP antibodies)
EYYKEYYKEYYK [ordered peptide of the repeated motif EYYK (n=3)] | prevents the development of EAE; also recorded: effective in preventing and treating experimental autoimmune encephalomyelitis | –
MBP p87–99: peptide of residues 87–99 of myelin basic protein, immunodominant epitope (SRPHLIRLFSRDA; UniProt P02686 87-99, looked up, fragment) | – | more than 95%
